With Nc1cccc2ncccc12 the logP was 1.27.
Work on O=[N+]([O-])c1ccc2nn[nH]c2c1 yielded a logP of 1.95.
Nc1cc2ccccc2cc1N showed a logP of 1.54.
With Cc1ccc(N)c([N+](=O)[O-])c1 the logP was 1.82.
With Nc1cccc2cccc(N)c12 the logP was 1.78.
Compound Nc1nc2ccccc2[nH]1 has a logP of 1.34.
Compound Nc1ccc2[nH]ccc2c1 has a logP of 1.13.
Compound O=[N+]([O-])c1ccncc1 has a logP of 0.6.
Nc1ccc2[nH]ncc2c1 gave a logP of 0.65.
Work on O=[N+]([O-])c1ccc2nc[nH]c2c1 yielded a logP of 1.5.
Work on Nc1cccc2c(N)cccc12 yielded a logP of 0.89.
Compound Cc1cc(N)c([N+](=O)[O-])cc1C has a logP of 2.07.

Source: the SangsterLogP compilation
